Results published in US20070104778A1, “Controlled-release emulsion compositions” (priority 2005, published 2007).
≈ marks a conversion by molar mass, not a printed value. Read-outs that look alike come from different tables or passages of the source.

How the values were obtained:
[1] = Solubility of clozapine in solvent; format: physicochemical; conditions: organic solvent or mixture
[2] = Solubility of clozapine in different pH medium; format: physicochemical
[3] = Solubility of clozapine in organic acid and Vitamin E-TPGS + organic acid combination

`CN1CCN(C2=Nc3cc(Cl)ccc3Nc3ccccc32)CC1` [Clozapine, clozapine] gave a solubility (Bile extract 1% w/v surfactant solution, aqueous with cosolvent or surfactant or cyclodextrin) of 941 µg/mL (≈ 2880 µM), a solubility (Brij 700 1% w/v surfactant solution, aqueous with cosolvent or surfactant or cyclodextrin) of 336 µg/mL (≈ 1030 µM) and a solubility (Cremphor A25 1% w/v surfactant solution, aqueous with cosolvent or surfactant or cyclodextrin) of 506 µg/mL (≈ 1550 µM). It also gave a solubility (Cremphor A-6 1% w/v surfactant solution, aqueous with cosolvent or surfactant or cyclodextrin) of 11.5 µg/mL (≈ 35.2 µM), a solubility (Cremphor RH 40 1% w/v surfactant solution, aqueous with cosolvent or surfactant or cyclodextrin) of 115 µg/mL (≈ 351 µM) and a solubility (Labrasol 1% w/v surfactant solution, aqueous with cosolvent or surfactant or cyclodextrin) of 70.6 µg/mL (≈ 216 µM). It also gave a solubility (Lutrol F-68 1% w/v surfactant solution, aqueous with cosolvent or surfactant or cyclodextrin) of 15.3 µg/mL (≈ 46.8 µM), a solubility (PEG 400 1% w/v surfactant solution) of 30.9 µg/mL (≈ 94.6 µM) and a solubility (PEG 600 1% w/v surfactant solution) of 29.7 µg/mL (≈ 90.8 µM). For the same molecule, the solubility (PEG distearate 1% w/v surfactant solution, aqueous with cosolvent or surfactant or cyclodextrin) was 952 µg/mL (≈ 2910 µM), the solubility (PEG-diolaurate 1% w/v surfactant solution, aqueous with cosolvent or surfactant or cyclodextrin) was 104 µg/mL (≈ 320 µM) and the solubility (PEG-monolaurate 1% w/v surfactant solution, aqueous with cosolvent or surfactant or cyclodextrin) was 372 µg/mL (≈ 1140 µM). It also gave a solubility (Sodium Dodecylate Sulfate (SDS) 1% w/v surfactant solution, aqueous with cosolvent or surfactant or cyclodextrin) of 1140 µg/mL (≈ 3480 µM), a solubility (Sodium desoxycholate 1% w/v surfactant solution, aqueous with cosolvent or surfactant or cyclodextrin) of 342 µg/mL (≈ 1050 µM) and a solubility (Solutol HS15 1% w/v surfactant solution, aqueous with cosolvent or surfactant or cyclodextrin) of 344 µg/mL (≈ 1050 µM). The solubility (Span 20 1% w/v surfactant solution, aqueous with cosolvent or surfactant or cyclodextrin) was 16.1 µg/mL (≈ 49.4 µM), the solubility (Tween 20 1% w/v surfactant solution, aqueous with cosolvent or surfactant or cyclodextrin) was 158 µg/mL (≈ 485 µM) and the solubility (Tween 80 1% w/v surfactant solution, aqueous with cosolvent or surfactant or cyclodextrin) was 399 µg/mL (≈ 1220 µM). For the same molecule, the solubility ([1]; 2-pyrrolidinone (Soluphor-P)) was greater than 250000 µg/mL, the solubility ([1]; N-methyl-2-pyrrolidinone (NMP)) was greater than 300000 µg/mL and the solubility ([2]; DI water, water) was 11.8 µg/mL (≈ 36.1 µM). The “Solubility (pH dependent behavior)” value ([2]; low pH regions) was “fairly good solubility”, the solubility ([2]; pH 1.5 medium, pH 1.5, simulated gastric fluid) was 712 µg/mL (≈ 2180 µM) and the solubility ([2]; pH 7.5 medium, pH 7.5, aqueous buffer) was 30.7 µg/mL (≈ 93.9 µM). For the same molecule, the “Solubility (pH dependent behavior)” value ([2]; pH beyond 5) was “low solubility”, the solubility ([3]; Alginic acid 1% w/v, aqueous buffer) was 9.99 µg/mL and the solubility ([3]; Ascorbic acid 1% w/v, aqueous buffer) was 259 µg/mL. For the same molecule, the solubility ([3]; Citric acid (0.1M), aqueous buffer) was 35400 µg/mL, the solubility ([3]; Fumaric acid (0.01M), aqueous buffer) was 8880 µg/mL and the solubility ([3]; Oleinic acid 1% w/v, aqueous with cosolvent or surfactant or cyclodextrin) was 9.86 µg/mL. For the same molecule, the “Solubility of Clozapine in Organic Acid” value ([3]; Stearic acid 1% w/v) was “Form conjugated compound” and the solubility ([3]; Succinic acid (0.05M), aqueous buffer) was 25700 µg/mL.
